Experimental findings from publication PMC4650696, “Novel anti-thrombotic agent for modulation of protein disulfide isomerase family member ERp57 for prophylactic therapy” (Scientific Reports, 2015) are described below.

The term inhibition denotes the percentage by which the read-out fell short of the control. By IC50 is commonly meant the concentration that gives 50% inhibition.

Assay [1] deals with T1, ERp5 (Rattus norvegicus, UniProt Q63081).
T1 construct: gene Pdia6; endogenous, rat platelet lysate
T1 sequence (Q63081 20-440): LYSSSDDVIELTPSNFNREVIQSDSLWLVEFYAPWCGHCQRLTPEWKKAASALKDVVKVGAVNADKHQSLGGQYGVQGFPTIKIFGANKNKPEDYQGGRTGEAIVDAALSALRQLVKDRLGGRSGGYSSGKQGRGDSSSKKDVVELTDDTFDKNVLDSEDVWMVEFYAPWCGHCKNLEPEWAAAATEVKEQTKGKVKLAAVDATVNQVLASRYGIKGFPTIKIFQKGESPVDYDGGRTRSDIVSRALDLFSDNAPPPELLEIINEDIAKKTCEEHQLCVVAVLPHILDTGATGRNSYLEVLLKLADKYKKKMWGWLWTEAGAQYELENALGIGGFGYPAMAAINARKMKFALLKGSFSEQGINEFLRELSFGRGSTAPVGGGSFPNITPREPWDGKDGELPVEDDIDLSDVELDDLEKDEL
Nature of the assay: competition of BAA pull-down by excess untagged ADTM, immunoblot; […] inhibition of ERp5 activity at […]. In kind it is cell-based. On the technique in general: A western blot detects proteins with antibodies after separation by electrophoresis.

Assay [2] concerns the target T2, ERp57 (Homo sapiens, UniProt P30101).
T2 construct: gene PDIA3; human recombinant ERp57
T2 sequence (P30101 25-505): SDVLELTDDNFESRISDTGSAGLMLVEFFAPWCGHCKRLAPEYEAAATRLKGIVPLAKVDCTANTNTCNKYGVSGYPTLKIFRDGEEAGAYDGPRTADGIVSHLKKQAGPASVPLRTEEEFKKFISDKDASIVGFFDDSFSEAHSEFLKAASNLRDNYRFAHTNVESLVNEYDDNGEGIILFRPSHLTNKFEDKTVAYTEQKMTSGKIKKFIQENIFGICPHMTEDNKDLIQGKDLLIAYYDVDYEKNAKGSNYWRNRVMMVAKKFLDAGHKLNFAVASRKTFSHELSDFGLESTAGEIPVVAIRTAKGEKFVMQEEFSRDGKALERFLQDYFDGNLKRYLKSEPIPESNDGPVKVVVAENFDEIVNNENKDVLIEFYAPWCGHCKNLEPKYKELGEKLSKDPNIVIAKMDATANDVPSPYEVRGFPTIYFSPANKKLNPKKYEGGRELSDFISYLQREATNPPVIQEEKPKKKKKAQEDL
Nature of the assay: insulin reduction turbidity assay with recombinant ERp57; irreversible after dilution; also competes with BAA in rat platelet lysate pull-down. It is filed as biochemical.

Assay [3] concerns the target T3, ERp72 (Rattus norvegicus, UniProt P38659).
T3 construct: gene Pdia4; endogenous, rat platelet lysate
T3 sequence (P38659 21-643): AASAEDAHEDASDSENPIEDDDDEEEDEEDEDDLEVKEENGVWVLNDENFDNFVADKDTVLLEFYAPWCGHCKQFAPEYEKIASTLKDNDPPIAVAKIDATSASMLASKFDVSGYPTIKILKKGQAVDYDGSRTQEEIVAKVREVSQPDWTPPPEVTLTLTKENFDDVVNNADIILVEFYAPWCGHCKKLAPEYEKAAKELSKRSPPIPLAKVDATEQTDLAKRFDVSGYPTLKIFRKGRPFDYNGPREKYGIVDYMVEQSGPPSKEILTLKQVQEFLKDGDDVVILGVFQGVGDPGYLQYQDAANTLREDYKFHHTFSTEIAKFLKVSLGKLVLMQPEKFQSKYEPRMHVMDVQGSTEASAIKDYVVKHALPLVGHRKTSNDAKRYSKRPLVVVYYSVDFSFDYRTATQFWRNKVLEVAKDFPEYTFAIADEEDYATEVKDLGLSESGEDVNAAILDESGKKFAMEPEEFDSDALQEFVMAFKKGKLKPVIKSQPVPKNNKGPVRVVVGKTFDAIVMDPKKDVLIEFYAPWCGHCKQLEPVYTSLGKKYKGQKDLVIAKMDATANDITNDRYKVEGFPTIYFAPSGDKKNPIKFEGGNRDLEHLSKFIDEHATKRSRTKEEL
Nature of the assay: competition of BAA pull-down by excess untagged ADTM, immunoblot; only […] inhibition of recombinant ERp72 at […]. It is filed as cell-based.

For a further assay, the target named is T4, PDI (Homo sapiens, UniProt P07237).
T4 construct: gene P4HB; recombinant PDI
T4 sequence (P07237 18-508): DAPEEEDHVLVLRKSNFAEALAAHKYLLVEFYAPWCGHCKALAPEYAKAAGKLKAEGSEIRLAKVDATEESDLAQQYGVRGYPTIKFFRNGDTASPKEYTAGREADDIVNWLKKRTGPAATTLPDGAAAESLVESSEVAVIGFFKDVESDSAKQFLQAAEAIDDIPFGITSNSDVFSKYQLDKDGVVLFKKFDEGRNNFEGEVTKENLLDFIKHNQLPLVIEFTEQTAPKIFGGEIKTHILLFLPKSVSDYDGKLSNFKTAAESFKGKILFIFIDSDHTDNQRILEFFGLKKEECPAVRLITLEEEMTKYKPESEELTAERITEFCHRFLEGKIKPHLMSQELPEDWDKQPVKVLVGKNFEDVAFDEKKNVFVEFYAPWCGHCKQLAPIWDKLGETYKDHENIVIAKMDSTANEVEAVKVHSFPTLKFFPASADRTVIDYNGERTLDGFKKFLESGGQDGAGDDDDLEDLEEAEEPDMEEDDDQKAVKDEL
Nature of the assay: insulin reduction turbidity assay with recombinant PDI (weak). In kind it is biochemical.

In assay [4] the target is T3, ERp72. Nature of the assay: NeutrAvidin pull-down from platelet lysate, LC-MS/MS and immunoblot, competed by excess ADTM. In kind it is cell-based.
In assay [5] the target is T1, ERp5. Described as above. It is filed as cell-based.
In assay [6] the target is T5, ERp57 (Rattus norvegicus, UniProt P11598).
T5 construct: gene Pdia3; endogenous, rat platelet lysate
T5 sequence (P11598 25-505): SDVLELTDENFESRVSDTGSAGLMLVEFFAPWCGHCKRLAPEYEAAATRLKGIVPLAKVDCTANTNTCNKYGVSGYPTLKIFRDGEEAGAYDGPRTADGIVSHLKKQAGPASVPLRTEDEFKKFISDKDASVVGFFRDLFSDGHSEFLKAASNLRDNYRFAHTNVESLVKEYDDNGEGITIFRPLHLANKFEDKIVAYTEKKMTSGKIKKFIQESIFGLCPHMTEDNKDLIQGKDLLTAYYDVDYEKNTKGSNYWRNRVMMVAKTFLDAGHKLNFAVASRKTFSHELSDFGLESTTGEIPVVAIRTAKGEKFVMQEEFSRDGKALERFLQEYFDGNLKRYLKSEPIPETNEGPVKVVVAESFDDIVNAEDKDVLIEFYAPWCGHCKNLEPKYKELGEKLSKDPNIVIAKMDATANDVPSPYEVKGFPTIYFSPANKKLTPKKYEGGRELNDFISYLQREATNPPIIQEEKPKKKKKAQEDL
The description is as above. In kind it is cell-based.

As for `CC(=O)Oc1ccc(C[C@@H](OC(C)=O)C(=O)OCc2nc(C)c(C)nc2C)cc1OC(C)=O` [ADTM], the inhibition at 300 µM at ERp5 [1] was 38%; on ERp72 [3] it was 18%; on PDI it was 30%. In addition, the 50% inhibitory concentration (IC50) on ERp57 [2] fell in the range of 100 to 300 µM.
`O=C1N[C@H]2[C@H](CS[C@H]2CCCCC(=O)O[C@H](Cc2ccc(O)c(O)c2)C(=O)OCc2ccccc2)N1` [BAA]: the “NeutrAvidin pull-down from platelet lysate, LC-MS/MS and immunoblot, competed by” value on ERp72 [4] is “We confirmed the identity of the pulled-down proteins as ERp72, ERp57 and ERp5 with their respective antibodies”; on ERp5 [5], “We confirmed the identity of the pulled-down proteins as ERp72, ERp57 and ERp5 with their respective antibodies”; on ERp57 [6] it was “specificity of the binding between BAA and these targets (ERp72, ERp57 and ERp5) could be demonstrated by the competition”.
